Data taken from patent publication US20230331803A1, “CO-AGONISTS OF THE GLP-1 AND AMYLIN RECEPTORS” (priority 2020, published 2023).
Where two headings read alike, the source gives them in different places. Starred links: 1 amine or outer side, 2 acyl side, 3 side chain; linkers in the order of their positions; H or OH if unused. Non-standard residues stand in square brackets, D forms with d. Groups on a side chain read outwards from the residue. *: point of attachment. Decanoyl(10-(4-HOOC-PhO)) = O=C(O)c1ccc(OCCCCCCCCCC(=O)*)cc1; C20 diacid = O=C(O)CCCCCCCCCCCCCCCCCCC(=O)*; C18 diacid = O=C(O)CCCCCCCCCCCCCCCCC(=O)*; C16 diacid = O=C(O)CCCCCCCCCCCCCCC(=O)*; γGlu = O=C(O)[C@H](CCC(=O)[*:2])N[*:1]; Trx = NC[C@H]1CC[C@H](C(=O)O)CC1; AEEA = NCCOCCOCC(=O)O; Aib = CC(C)(N)C(=O)O

Key:
human GLP-1 receptor = biological target: T1, human GLP-1 receptor (Homo sapiens, UniProt P43220); test: Human GLP-1 receptor in vitro potency assay (CRE-luciferase reporter, BHK cells); format: cell-based
T1 construct: expressed in transfected cells; host or cells: BHK (Baby Hamster Kidney) cells, clone BHK 467-12A KZ-10, stably transfected, with CRE-luciferase reporter
Procedure: It is thus possible to measure GLP-1 receptor activity using a CRE-luciferase reporter gene introduced into Baby Hamster Kidney (BHK) cells co-expressing the GLP-1 receptor.
Cells were aliquoted and stored at -180° C. until use.
Plates were sealed and incubated at room temperature with gentle shaking for 30 minutes while protected from light. Luminescence was detected on a luminescence plate reader e.g. a Synergy 2 (BioTek).

[1] = biological target: T2, human amylin receptor (hAmyR3) (Homo sapiens, UniProt O60896+P30988); test: Human amylin receptor in vitro potency assay (CRE-luciferase reporter, BHK cells); format: cell-based;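 further: BHK cells expressing human calcitonin receptor plus RAMP3 (amylin-3 receptor) with a CRE-luciferase reporter, agonist activity read as luminescence from cAMP-driven transcription, 7-point serial dilutions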
T2 construct: host or cells: BHK cells (Hollex-1 line: human calcitonin receptor (a) + CRE-Luc), further transfected with human RAMP3

[2] = Pharmacokinetic studies in Beagle dogs after oral administration of SNAC-based tablets; format: in vivo
Outline: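 Plasma exposure of GLP-1/amylin co-agonists measured by LCMS over up to 240 h after peroral dosing of SNAC tablets (100–300 mg SNAC, 3–4 mg compound) to overnight-fasted male Beagles. Some dogs pre-dosed s.c. with ~3 nmol/kg SEQ ID NO: 237; PK by NCA.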

Sprague Dawley (SD) rats = test: Acute food intake in ad libitum fed rats after a single subcutaneous administration; format: in vivo, rat; details: Table 6a, rat, single administration;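 further: food intake monitored in the HM2 system, three rats per cage kept on a reversed light cycle, with food and water freely available after the subcutaneous dose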
Source text: Sprague Dawley (SD) rats from Taconic Europe, Denmark were used for the acute food intake experiments, wherein the principles of laboratory animal care were followed.
The rats arrived at least 10-14 days before the start of the experiment to allow acclimatisation to experimental settings. During this period, the animals were handled at least 2 times. Immediately upon arrival, rats were put on a reversed light cycle (dark from 11am - 11pm) and put in the HM2 system and ID chipped. Three rats were housed in each cage. […] The rats were dosed once according to body weight with a 0.01-3 mg/kg solution administered subcutaneously (sc). The time of dosing was recorded for each group.
After dosing, the rats were returned to their home cages, where they had access to food and water. […] At the end of the experimental session, the animals were euthanised.

[3] = dogs, oral administration (tablet)
[4] = male, Beagle, dog, in vivo, dogs, oral administration (tablet), read-out: Tmax
[5] = male, Beagle, dog, in vivo, dogs, oral administration (tablet), read-out: T½ (converted)
[6] = Table 4a, BHK cells expressing human GLP-1R, CRE-Luc, 3 hours, read-out: Human GLP-1R potency [EC50 (pM)]
[7] = Table 4a, BHK hAmyR3/CRE-Luc cells, 3 hours, read-out: Human AmyR3 potency [EC50 (pM)]
[8] = male, Beagle, dog, in vivo, po, Tmax (hr)
[9] = male, Beagle, dog, in vivo, po, T½ (hr)

T1 sequence (P43220 24-463): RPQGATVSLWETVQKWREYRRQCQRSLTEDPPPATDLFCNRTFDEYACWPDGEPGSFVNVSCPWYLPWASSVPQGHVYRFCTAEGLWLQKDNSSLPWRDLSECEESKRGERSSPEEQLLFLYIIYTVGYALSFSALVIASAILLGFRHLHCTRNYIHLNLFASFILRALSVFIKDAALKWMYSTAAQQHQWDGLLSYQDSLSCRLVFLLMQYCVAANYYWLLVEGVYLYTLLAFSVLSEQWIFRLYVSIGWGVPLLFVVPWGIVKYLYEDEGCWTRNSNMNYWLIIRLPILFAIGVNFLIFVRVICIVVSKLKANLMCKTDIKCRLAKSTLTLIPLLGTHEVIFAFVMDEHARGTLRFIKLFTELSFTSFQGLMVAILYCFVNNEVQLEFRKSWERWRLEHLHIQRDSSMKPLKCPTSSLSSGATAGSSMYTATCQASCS
T2 sequence (P30988 25-474): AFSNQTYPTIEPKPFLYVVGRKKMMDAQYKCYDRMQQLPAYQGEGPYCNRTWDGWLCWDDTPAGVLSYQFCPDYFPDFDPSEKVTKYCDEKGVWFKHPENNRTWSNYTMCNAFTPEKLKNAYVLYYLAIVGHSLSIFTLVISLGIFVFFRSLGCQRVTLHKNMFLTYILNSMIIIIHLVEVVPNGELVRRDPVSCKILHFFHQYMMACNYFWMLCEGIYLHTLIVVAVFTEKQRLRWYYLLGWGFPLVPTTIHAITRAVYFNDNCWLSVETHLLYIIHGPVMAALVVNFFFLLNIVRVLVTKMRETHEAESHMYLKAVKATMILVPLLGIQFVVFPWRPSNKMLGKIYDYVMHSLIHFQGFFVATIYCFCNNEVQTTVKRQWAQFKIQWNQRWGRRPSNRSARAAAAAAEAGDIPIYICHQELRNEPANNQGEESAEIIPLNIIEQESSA
T2 sequence (O60896 24-148): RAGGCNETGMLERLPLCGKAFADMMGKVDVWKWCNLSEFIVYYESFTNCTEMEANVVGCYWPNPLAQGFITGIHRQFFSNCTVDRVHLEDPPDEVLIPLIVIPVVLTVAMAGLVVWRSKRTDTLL

Row | Compound | EC50 (human GLP-1 receptor) | EC50 [1] | AUC/D [2, 3] | Cmax/D [2, 3] | Tmax [2, 4] | half-life [2, 5] | Food intake relative to vehicle (%) 0-24 hr, 10 nmol/kg (Sprague Dawley (SD) rats) | Food intake relative to vehicle (%) 24-48 hr, 10 nmol/kg (Sprague Dawley (SD) rats) | EC50 (human GLP-1 receptor; [6]) | EC50 [1, 7] | T½ ([2]; male, Beagle, dog, in vivo, po) | Tmax [2, 8] | half-life [2, 9] | AUC/D ([2]; dog, in vivo, po) | Cmax/D ([2]; dog, in vivo, po)
1 | CC[C@H](C)[C@H](NC(=O)[C@H](Cc1ccccc1)NC(=O)[C@H](CCC(=O)O)NC(=O)[C@H](CCCNC(=N)N)NC(=O)[C@H](C)NC(=O)[C@H](C)NC(=O)[C@H](CCC(N)=O)NC(=O)[C@H](CCC(=O)O)NC(=O)[C@H](CCC(=O)O)NC(=O)[C@H](CC(C)C)NC(=O)[C@H](Cc1ccc(O)cc1)NC(=O)[C@H](CO)NC(=O)[C@H](CO)NC(=O)[C@H](CCCCNC(=O)COCCOCCNC(=O)COCCOCCNC(=O)CC[C@H](NC(=O)[C@H]1CC[C@H](CNC(=O)CCCCCCCCCCCCCCCCCCC(=O)O)CC1)C(=O)O)NC(=O)[C@H](CC(=O)O)NC(=O)[C@H](CO)NC(=O)[C@@H](NC(=O)[C@H](Cc1ccccc1)NC(=O)[C@@H](NC(=O)CNC(=O)[C@H](CCC(=O)O)NC(=O)C(C)(C)NC(=O)[C@@H](N)Cc1c[nH]cn1)[C@@H](C)O)[C@@H](C)O)C(=O)N[C@@H](CCC(=O)O)C(=O)N[C@@H](Cc1c[nH]c2ccccc12)C(=O)N[C@@H](CC(C)C)C(=O)N[C@H](C(=O)N[C@@H](CCCNC(=N)N)C(=O)NCC(=O)N[C@@H](CCCNC(=N)N)C(=O)NCC(=O)N[C@@H](CCC(=O)O)C(=O)N[C@@H](C)C(=O)N[C@@H](CO)C(=O)N[C@@H](CCC(=O)O)C(=O)N[C@@H](CC(C)C)C(=O)N[C@@H](CO)C(=O)N[C@H](C(=O)N[C@@H](C)C(=O)N[C@@H](C)C(=O)N[C@@H](CC(C)C)C(=O)NCC(=O)N[C@@H](CCCNC(=N)N)C(=O)N[C@@H](CC(C)C)C(=O)N[C@@H](CO)C(=O)N[C@@H](C)C(=O)N[C@@H](CCC(=O)O)C(=O)N[C@@H](CC(C)C)C(=O)N[C@@H](Cc1c[nH]cn1)C(=O)N[C@@H](CCC(=O)O)C(=O)N[C@@H](CC(C)C)C(=O)N[C@@H](C)C(=O)N[C@H](C(=O)N[C@@H](CC(C)C)C(=O)N1CCC[C@H]1C(=O)N[C@@H](CCCNC(=N)N)C(=O)N[C@H](C(=O)N[C@@H](CCC(=O)O)C(=O)N[C@H](C(=O)NCC(=O)N[C@@H](CO)C(=O)NCC(=O)N[C@@H](CO)C(=O)N1CCC[C@H]1C(N)=O)[C@@H](C)O)[C@@H](C)O)[C@@H](C)O)[C@@H](C)O)C(C)C [Compound 0440] | 5.7 pM | 10.4 pM | 5.78 kg·h/L | 0.29 kg/L | 1.8 h | 32 h | 81% | 77% | – | – | – | – | – | – | –
2 | H-HWEGTFTSDVSSYLEEQAARK([AEEA-AEEA-γGlu-Decanoyl(10-(4-HOOC-PhO))])FIEWLVRGRGEGGGGGASELSTAALGRLSAELHELK([AEEA-AEEA-γGlu-Decanoyl(10-(4-HOOC-PhO))])TLPRTETGSGSP-NH2 [Compound 0232] | 6.4 pM | 74.2 pM | 2.00 kg·h/L | 0.51 kg/L | 0.8 h | 4 h | 61% | 95% | – | – | – | – | – | – | –
3 | H-HWEGTFTSDVSSYLEEQAARK([AEEA-AEEA-γGlu-Decanoyl(10-(4-HOOC-PhO))])FIEWLVRGRGEGGGGGASELSTAALGRLSK([AEEA-AEEA-γGlu-Decanoyl(10-(4-HOOC-PhO))])ELHELATLPRTETGSGSP-NH2 [Compound 0231] | 5.6 pM | 68 pM | 0.83 kg·h/L | 0.27 kg/L | 1 h | 6 h | 27% | 76% | – | – | – | – | – | – | –
4 | H-H[Aib]EGTFTSDVSK([AEEA-AEEA-γGlu-C16 diacid])YLEEQAARK([AEEA-AEEA-γGlu-C16 diacid])FIAWLVRGRGGGGGEASELSTAALGRLSAELHELATLPRTETGSGSP-NH2 [Compound 0516] | – | – | – | – | – | – | 87% | 82% | 3.3 pM | 8.9 pM | 103 h | 2 h | 99 h | – | –
5 | H-H[Aib]EGTFTSDVSK([AEEA-AEEA-γGlu-C18 diacid])YLEEQAAREFIAWLVRGRGGGGGEASELSTAALGRLSAELHELATLPRTETGSGSP-NH2 [Compound 0640] | – | – | – | – | – | – | 28% | 66% | 2.3 pM | 6 pM | – | 1.5 h | 29 h | 7.57 kg·h/L | 0.37 kg/L
6 | H-H[Aib]EGTFTSDVSRYLEEQAAREFIEWLVRGRK([AEEA-AEEA-γGlu-Trx-C20 diacid])GGGGEASELSTAALGRLSAELHELATLPRTETGSGSP-NH2 [Compound 0511] | – | – | – | – | – | – | 61% | 75% | 8.8 pM | 8.4 pM | – | 2 h | 25 h | 3.80 kg·h/L | 0.14 kg/L
